Values quoted from earlier work in PubChem BioAssay AID1259409 (Chemical Carcinogenesis Research Information System (CCRIS), 2018).

System: rodent chemically induced tumor inhibition, incidence and multiplicity
Assay: CCRIS tumor inhibitor studies
Settings: Promoter: NONE USED

COc1cc2ccc(=O)oc2cc1O
tumour outcome (control, treated, inhibition, significance) (Carcinogen: 7,12-DIMETHYLBENZ[A]ANTHRACENE, 57-97-6, Dose [Inhibitor]: 0.068 MMOL/G IN DIET FOR 8 D BEGINNING 1 WK PRIOR TO CARCINOGEN DOSE (STUDY DURATION: 23 WK), Route [Inhibitor]: ORAL, Species: RAT, Strain/Sex: SPRAGUE-DAWLEY/FEMALE, Target Tissue: Type of Lesion: MAMMARY GLAND: TUMOR, Dose [Carcinogen]: 12 MG IN 1.0 ML OLIVE OIL ONCE): 100%, 78%, 22%, not significant
tumour outcome (control, treated, inhibition, significance) (Carcinogen: BENZO[A]PYRENE, 50-32-8, Dose [Inhibitor]: 0.034 MMOL/G IN DIET BEGINNING 1 WK PRIOR TO FIRST CARCINOGEN DOSE AND CONTINUING FOR 3 D POST LAST CARCINOGEN DOSE FOR, Route [Inhibitor]: ORAL, Species: MOUSE, Strain/Sex: ICR/HA/FEMALE, Target Tissue: Type of Lesion: FORESTOMACH: TUMOR, Dose [Carcinogen]: 1 MG IN 0.2 ML CORN OIL 2/WK FOR 4 WK): 100%, 100%, 0%, not significant

CCCCC(C)(O)C/C=C/[C@H]1[C@H](O)CC(=O)[C@@H]1CCCCCCC(=O)OC (some centres undefined)
tumour outcome (control, treated, inhibition, significance) (Carcinogen: N-METHYL-N'-NITRO-N-NITROSOGUANIDINE, 70-25-7, Dose [Inhibitor]: 0, 200 UG/KG/D IN DRINKING WATER FOR 52 WK CONCURRENTLY WITH CARCINOGEN TREATMENT (STUDY DURATION: 52 WK), Route [Inhibitor]: ORAL, Species: RAT, Strain/Sex: SPRAGUE-DAWLEY/MALE, Target Tissue: Type of Lesion: GLANDULAR STOMACH: ADENOCARCINOMA, Dose [Carcinogen]: 120 MG/L IN DRINKING WATER FOR 52 WK): 9/15 (60%), 5/20 (25%), 58%, p<0.05

Clc1ccccc1C(c1ccccc1)(c1ccccc1)n1ccnc1
tumour outcome (control, treated, inhibition, significance) (Carcinogen: 3-METHYLCHOLANTHRENE, 56-49-5, Dose [Inhibitor]: 0, 2.9 UMOL IN 0.1 ML ACETONE 1 HR PRIOR TO CARCINOGEN DOSE 2/WK FOR 16 WK (STUDY DURATION: 16 WK), Route [Inhibitor]: DERMAL, Species: MOUSE, Strain/Sex: BALB/FEMALE, Target Tissue: Type of Lesion: SKIN: TUMORS, Dose [Carcinogen]: 1.8 UMOL IN 0.2 ML ACETONE 2/WK FOR 16 WK): 100%, 70%, 30%, p<0.05
